# Measurements as given in ChEMBL document CHEMBL1201862, “PubChem BioAssay data set” (2004).
# Calls of active or inactive are those of the source.
# Legend:
# [1] = luciferase reporter signal suppression in cells – H4 neuroglioma cells, luminescence, dose response (AID 1990); type: functional, cell-based
# [2] = Luminescence Cell-Based Dose Response HTS to Identify Inhibitors of 5'UTR Stem-Loop Driven Prion Protein mRNA Translation in H4 Neuroglioblastoma Cells. [Related pubchem assays: 1827 (Project Summary), 1813 (Primary HTS)]; type: functional
# cells [3] = type: functional, cell-based
# cells [4] = type: functional, cell-based; remark: listed apart in the source
# Cytochrome P450 2D6 = Cytochrome P450 2D6 (Homo sapiens, UniProt P10635);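 also: CYP2D6 member of a cytochrome P450 panel assay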
# [5] = viability of PTEN-deleted HCT116 cells – cell-based, HCT116 PTEN knockout, dose response (AID 1047); type: functional;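 also: HCT116 colon tumor cells with PTEN knocked out; cells exposed to compound for 60 hours before readout; potency for loss of cell viability measured by luminescence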
# [6] = viability of HCT116 lacking mutant beta-catenin – cell-based, human colon tumor, dose response (AID 1045); type: functional;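 also: HCT116 colon tumor cells with beta catenin knocked out; cells exposed to compound for 60 hours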
# [7] = Luminescence Cell-Based Dose Retest to Confirm Inhibitors of Cancer Stem Cells. [Related pubchem assays (depositor defined):AID2717, AID2721]; type: functional; conditions: Homo sapiens
# INS1 = experiment: INS-1E survival protection against cytokine death – cell-based, luminescence, retest, dose response (AID 449756); type: functional; conditions: Rattus norvegicus;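 also: cell death triggered by IL-1 beta plus TNF-alpha plus IFN-gamma mixture; protective hits raise ATP signal compared with cytokine alone wells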
# [8] = Trypanosoma cruzi growth suppression in host cells – NIH3T3 host cells, beta-gal luminescence, confirmation (AID 2044); type: functional, cell-based;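 also: intracellular parasites grown in NIH/3T3 mouse fibroblasts as host cells; luminescent beta-galactosidase reporter signal from transgenic T. cruzi replicating inside host cells; inhibitors lower the luminescence signal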
# [9] = NIH3T3 cell viability loss – ATP luminescence, mouse fibroblasts, counter-screen, dose response (AID 2010); type: functional, cell-based;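 also: cells exposed to compound for about 90 hours before reading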
# [10] = biological target: T1, Heat shock factor protein 1 (Mus musculus, UniProt P38532); experiment: enhancement of HSF1-driven luciferase signal – cell-based, NIH3T3, luminescence, dose retest, confirmation (AID 435004); type: functional;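 also: stress induced by proteasome inhibitor MG132 added 30 min after compound; luciferase reporter driven by HSF1 response element in NIH3T3 cells; actives raise luminescence as potentiators of the MG132 stress response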
# T1 sequence (P38532 whole entry): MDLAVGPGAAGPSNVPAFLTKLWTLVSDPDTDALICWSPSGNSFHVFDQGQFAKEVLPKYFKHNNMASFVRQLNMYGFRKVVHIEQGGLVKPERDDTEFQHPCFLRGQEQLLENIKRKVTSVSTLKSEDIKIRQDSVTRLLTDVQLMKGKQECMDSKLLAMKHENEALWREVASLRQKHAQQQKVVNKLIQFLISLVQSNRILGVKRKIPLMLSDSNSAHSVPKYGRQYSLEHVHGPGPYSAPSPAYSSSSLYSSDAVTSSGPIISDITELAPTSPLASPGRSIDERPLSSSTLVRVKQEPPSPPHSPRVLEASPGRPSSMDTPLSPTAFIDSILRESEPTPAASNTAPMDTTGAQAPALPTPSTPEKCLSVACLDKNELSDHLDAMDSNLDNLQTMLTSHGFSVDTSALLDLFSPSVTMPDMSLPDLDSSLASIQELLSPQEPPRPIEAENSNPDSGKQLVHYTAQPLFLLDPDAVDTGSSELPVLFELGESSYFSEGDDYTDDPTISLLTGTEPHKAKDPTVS
# [11] = biological target: T2, Ubiquitin-conjugating enzyme E2 N (Homo sapiens, UniProt P61088); type: functional;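 also: Dose-response confirmation in a TR-FRET assay detecting UBC13-driven polyubiquitin chain formation, inhibition measured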
# T2 sequence (P61088 whole entry): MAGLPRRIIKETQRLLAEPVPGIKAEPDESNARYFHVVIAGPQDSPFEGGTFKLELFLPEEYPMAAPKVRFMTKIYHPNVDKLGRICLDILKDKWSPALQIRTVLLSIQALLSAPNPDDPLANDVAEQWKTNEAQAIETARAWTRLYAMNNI
# [12] = biological target: T3, Replicative DNA helicase DnaB (Mycobacterium tuberculosis, UniProt P9WMR3); experiment: DnaB intein splicing inhibitors, dose response, biochemical, cell-free fluorescence (AID 449749); type: functional
# T3 sequence (P9WMR3 whole entry): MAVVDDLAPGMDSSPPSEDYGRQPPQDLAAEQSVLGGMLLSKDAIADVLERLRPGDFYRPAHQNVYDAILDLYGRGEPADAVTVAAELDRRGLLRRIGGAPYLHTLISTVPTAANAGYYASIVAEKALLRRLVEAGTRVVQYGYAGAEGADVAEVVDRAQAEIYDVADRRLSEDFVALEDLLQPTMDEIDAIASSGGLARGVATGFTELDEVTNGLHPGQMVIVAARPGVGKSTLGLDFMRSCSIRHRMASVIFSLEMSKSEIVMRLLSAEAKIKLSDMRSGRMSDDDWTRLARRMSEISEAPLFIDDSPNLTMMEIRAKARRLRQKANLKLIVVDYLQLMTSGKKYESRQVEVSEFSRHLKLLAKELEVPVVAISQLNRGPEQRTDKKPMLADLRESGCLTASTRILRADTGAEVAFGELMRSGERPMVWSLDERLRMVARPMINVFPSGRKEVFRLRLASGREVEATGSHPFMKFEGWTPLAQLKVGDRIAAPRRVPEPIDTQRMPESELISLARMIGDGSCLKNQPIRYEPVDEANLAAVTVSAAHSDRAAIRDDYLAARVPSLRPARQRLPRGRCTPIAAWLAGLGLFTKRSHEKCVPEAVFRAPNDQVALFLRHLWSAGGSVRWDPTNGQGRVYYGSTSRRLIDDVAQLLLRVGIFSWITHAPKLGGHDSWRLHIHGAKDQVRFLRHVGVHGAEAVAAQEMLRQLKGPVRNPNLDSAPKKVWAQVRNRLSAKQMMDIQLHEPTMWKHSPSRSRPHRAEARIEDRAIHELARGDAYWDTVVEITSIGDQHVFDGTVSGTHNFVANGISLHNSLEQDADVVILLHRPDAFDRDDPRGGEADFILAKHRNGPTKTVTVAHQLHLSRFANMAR
# Protein RecA = biological target: T4, Protein RecA (Mycobacterium tuberculosis, UniProt P9WHJ3); experiment: Fluorescence Cell-Free Homogeneous Dose Retest to Identify Inhibitors of RecA-Intein Splicing Activity. [Related pubchem assays (depositor defined):AID2097, AID2223, AID489010, AID492950]; type: functional
# T4 sequence (P9WHJ3 whole entry): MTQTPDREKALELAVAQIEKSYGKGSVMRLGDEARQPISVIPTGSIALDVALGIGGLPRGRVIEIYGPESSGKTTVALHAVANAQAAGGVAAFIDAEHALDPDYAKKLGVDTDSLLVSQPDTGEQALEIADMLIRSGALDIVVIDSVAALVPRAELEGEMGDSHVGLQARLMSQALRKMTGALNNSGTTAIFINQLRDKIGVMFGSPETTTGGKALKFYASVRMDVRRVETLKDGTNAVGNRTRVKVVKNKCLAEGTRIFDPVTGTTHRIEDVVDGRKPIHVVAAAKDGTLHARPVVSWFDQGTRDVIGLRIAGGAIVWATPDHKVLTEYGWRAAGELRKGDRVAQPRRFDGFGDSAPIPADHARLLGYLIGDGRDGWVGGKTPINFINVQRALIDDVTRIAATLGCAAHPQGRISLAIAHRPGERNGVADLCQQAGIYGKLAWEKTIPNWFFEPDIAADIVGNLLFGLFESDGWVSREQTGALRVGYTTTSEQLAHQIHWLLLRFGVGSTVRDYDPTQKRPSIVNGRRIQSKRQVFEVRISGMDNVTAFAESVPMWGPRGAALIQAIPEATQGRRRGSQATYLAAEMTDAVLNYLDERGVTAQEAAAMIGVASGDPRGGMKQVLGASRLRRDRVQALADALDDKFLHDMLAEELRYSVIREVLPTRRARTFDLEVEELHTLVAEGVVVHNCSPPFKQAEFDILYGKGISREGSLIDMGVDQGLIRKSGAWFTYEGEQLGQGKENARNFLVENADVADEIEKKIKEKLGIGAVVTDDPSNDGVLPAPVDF
# Cytochrome P450 3A4 = Cytochrome P450 3A4 (Homo sapiens, UniProt P08684);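 also: CYP3A4 tested as one member of a cytochrome P450 panel screen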
# [13] = reduction of Shn3 3'UTR-driven luciferase in osteoblasts – cell-based, Clone20 osteoblasts, firefly luciferase, cherry-picked, dose response (AID 624132); type: functional;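 also: firefly luciferase luminescence from reporter carrying the Shn3 3'UTR in osteoblasts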
# [14] = loss of viability in HepG2 cells – cell-based, CellTiter-Glo, cherry-picked, cytotoxicity control for Shn3 inhibitor project, dose response (AID 624134); type: functional
# [15] = non-specific 3'UTR reporter inhibition in Clone20-Shn3RL – cell-based, Renilla luciferase, cherry-picked, counter-screen for Shn3 inhibitor project, dose response (AID 624133); type: functional
# Cytochrome P450 1A2 = biological target: T5, Cytochrome P450 1A2 (Homo sapiens, UniProt P05177);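 also: PubChem cytochrome P450 panel assay, CYP1A2 panel member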
# T5 sequence (P05177 whole entry): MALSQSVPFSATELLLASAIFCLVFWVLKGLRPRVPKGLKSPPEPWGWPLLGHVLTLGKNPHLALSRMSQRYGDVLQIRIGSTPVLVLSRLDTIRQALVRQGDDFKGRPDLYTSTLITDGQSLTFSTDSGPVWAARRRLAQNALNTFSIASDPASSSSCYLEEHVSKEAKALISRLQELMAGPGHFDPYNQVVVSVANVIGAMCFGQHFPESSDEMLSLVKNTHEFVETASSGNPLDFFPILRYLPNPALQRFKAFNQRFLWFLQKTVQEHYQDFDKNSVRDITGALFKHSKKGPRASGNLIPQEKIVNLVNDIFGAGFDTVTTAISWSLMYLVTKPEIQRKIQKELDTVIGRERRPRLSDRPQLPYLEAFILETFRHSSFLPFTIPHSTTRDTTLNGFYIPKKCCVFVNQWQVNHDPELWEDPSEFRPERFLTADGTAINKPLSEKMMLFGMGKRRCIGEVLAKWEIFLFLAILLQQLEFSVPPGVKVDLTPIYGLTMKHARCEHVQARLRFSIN
# [16] = viability of uninfected HEp-2 cells – cell-based, HTS, cytotoxicity control for RSV inhibitor project, dose response (AID 2410); type: functional; conditions: human respiratory syncytial virus
# [17] = biological target: T1, Heat shock factor protein 1; experiment: decrease of HSF1-responsive luciferase luminescence – cell-based, NIH3T3, dose retest, confirmation (AID 2382); type: functional;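 also: NIH3T3 fibroblasts with HSF1-driven luciferase reporter stressed by proteasome inhibitor MG132; luminescence from HSF1-driven luciferase expression after 8 hours of MG132 stress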
# Chain of Cytochrome P450 2D6 (P10635 whole entry): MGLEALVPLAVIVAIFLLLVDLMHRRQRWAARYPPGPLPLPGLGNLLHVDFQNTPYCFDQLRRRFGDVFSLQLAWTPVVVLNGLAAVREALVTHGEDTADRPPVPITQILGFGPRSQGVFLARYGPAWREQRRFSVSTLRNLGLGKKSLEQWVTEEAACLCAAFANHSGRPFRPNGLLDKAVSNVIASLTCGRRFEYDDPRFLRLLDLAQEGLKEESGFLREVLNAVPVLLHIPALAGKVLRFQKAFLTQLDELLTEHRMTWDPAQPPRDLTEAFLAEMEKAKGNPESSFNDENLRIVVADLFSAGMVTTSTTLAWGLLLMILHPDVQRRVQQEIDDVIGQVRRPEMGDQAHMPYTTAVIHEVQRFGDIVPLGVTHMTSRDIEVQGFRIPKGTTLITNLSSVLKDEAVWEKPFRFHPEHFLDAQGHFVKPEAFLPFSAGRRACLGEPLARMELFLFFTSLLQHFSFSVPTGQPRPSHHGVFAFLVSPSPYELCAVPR
# Chain of Cytochrome P450 3A4 (P08684 whole entry): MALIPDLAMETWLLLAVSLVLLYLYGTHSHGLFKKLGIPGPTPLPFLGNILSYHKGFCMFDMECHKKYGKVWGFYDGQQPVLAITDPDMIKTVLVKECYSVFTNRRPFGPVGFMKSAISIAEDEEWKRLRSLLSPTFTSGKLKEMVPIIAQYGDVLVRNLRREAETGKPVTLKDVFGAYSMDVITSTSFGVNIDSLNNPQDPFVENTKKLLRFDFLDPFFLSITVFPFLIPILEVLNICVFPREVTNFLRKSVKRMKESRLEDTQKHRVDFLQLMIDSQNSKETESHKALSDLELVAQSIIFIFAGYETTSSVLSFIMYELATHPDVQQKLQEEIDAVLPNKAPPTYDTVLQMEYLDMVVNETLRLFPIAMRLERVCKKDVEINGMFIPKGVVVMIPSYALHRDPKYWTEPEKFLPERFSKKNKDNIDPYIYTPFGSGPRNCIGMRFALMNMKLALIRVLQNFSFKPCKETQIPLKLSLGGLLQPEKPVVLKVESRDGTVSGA
structure (smiles),measurement,setting,value
CCC(CC)NC(=O)c1cc2c(C)nn(Cc3ccccc3Cl)c2s1,EC50,[1],11.7 µM (active)
same,EC50,[2],> 120 µM (not active)
O=C(NNC(=O)C(O)(c1ccccc1)c1ccccc1)C1CC1,EC50,cells [3],> 350 µM (not active)
same,EC50,cells [4],> 350 µM (not active)
O=C(c1ccco1)N1CCC[C@@]2(CCN(c3ncccn3)C2)C1,AC50,Cytochrome P450 2D6,25.1 µM (inconclusive)
Cc1ccc(C)c(NC(S)=NC(NC(=O)Cc2cccc3ccccc23)C(Cl)(Cl)Cl)c1 (configuration not stated),EC50,[5],13.9 µM (active)
same,EC50,[6],15.5 µM (active)
same,AC50,[7],0.861 µM (active)
same,AC50,INS1,4.16 µM (active)
CCCn1c(SCC(=O)N2CCc3ccccc3C2)nc2c1c(=O)n(C)c(=O)n2C,EC50,cells [3],> 350 µM (not active)
same,EC50,cells [4],> 350 µM (not active)
CCOC(=O)c1c(NC(=O)CSc2nc3cc(Cl)ccc3c(=O)n2Cc2ccco2)sc(C(=O)N(C)C)c1C,EC50,[8],0.999 µM (active)
same,EC50,[5],6.8 µM (active)
same,EC50,[9],> 60 µM (inconclusive)
same,EC50,[6],12.2 µM (active)
same,EC50,[10],7.33 µM (active)
COc1ccc(CNc2ccnc(-c3ccccc3Cl)n2)c(OC)c1,AC50,Cytochrome P450 2D6,39.8 µM (inconclusive)
C=C(C)CN=C(S)N=Nc1c(O)[nH]c2ccc([N+](=O)[O-])cc12,IC50,[11],> 20 µM (inactive)
same,AC50,[12],52.8 µM (active)
same,EC50,Protein RecA,151 µM (inconclusive)
CNC(=O)C1CC(=O)N(c2ccc(OCC(=O)N3CCCC3)cc2)C1 (configuration not stated),EC50,cells [3],> 350 µM (not active)
same,EC50,cells [4],> 350 µM (not active)
same,EC50,[10],> 260 µM (inactive)
O=C(Nc1ccc(Br)cc1F)c1ccc2c(c1)OCCO2,EC50,[2],10.8 µM (active)
Cc1cc(C)n(-c2nnc(C)n2/N=C/c2ccccc2OCc2ccccc2Cl)n1,AC50,Cytochrome P450 2D6,28.2 µM (inconclusive)
O=C(NC12CC3CC(CC(C3)C1)C2)C12CC3CC(C1)CC(n1cnc(Cl)n1)(C3)C2,AC50,Cytochrome P450 2D6,11.2 µM (inconclusive)
same,AC50,Cytochrome P450 3A4,14.1 µM (inconclusive)
COc1ccc(C(=O)Nc2ccc(OCC(F)(F)C(F)F)c(C(F)(F)F)c2)cc1OC,AC50,[7],3.78 µM (active)
same,AC50,Cytochrome P450 2D6,22.4 µM (inconclusive)
CN(CC(=O)Nc1cccc(S(=O)(=O)N2CCOCC2)c1)CC(=O)Nc1ccc(Cl)c(C(F)(F)F)c1,AC50,[13],2.4 µM (active)
same,AC50,[14],56.7 µM (active)
same,AC50,[15],6.89 µM (active)
Cc1ccc2nnn(Cc3cccc(C(C)(C)C)c3O)c2c1,EC50,[10],> 260 µM (inactive)
same,AC50,[13],5.44 µM (active)
same,AC50,[14],59.3 µM (active)
same,AC50,[15],7.31 µM (active)
COc1ccc(/N=c2\oc3ccc(OC)cc3cc2-c2nc3ccccc3[nH]2)cc1,EC50,[5],3.77 µM (active)
same,EC50,[6],13 µM (active)
Cc1ccc(S(=O)(=O)c2c(N)n(Cc3ccco3)c3nc4ccccc4nc23)cc1C,EC50,[5],18.4 µM (active)
same,EC50,[6],20.1 µM (active)
Cc1cccc(NC(S)=Nc2ccc(Br)cc2)c1,AC50,Cytochrome P450 2D6,8.91 µM (inconclusive)
same,AC50,Cytochrome P450 3A4,25.1 µM (inconclusive)
CC(C)(C)NS(=O)(=O)c1ccc(NC(=O)c2cc(-c3ccccc3)nc3ccccc23)cc1,EC50,[8],2.03 µM (active)
same,EC50,[9],> 60 µM (not active)
same,AC50,Cytochrome P450 2D6,3.98 µM (inconclusive)
same,AC50,Cytochrome P450 1A2,3.16 µM (inconclusive)
COc1ccc(CN(C)CC(=O)Nc2ccc(SC(F)F)cc2)cc1OC,EC50,cells [3],> 350 µM (not active)
same,EC50,cells [4],> 350 µM (not active)
CC(C)(C)NC(=O)CN(C(=O)Cn1nnc(-c2ccc(Cl)cc2)n1)C1CCN(Cc2ccccc2)CC1,CC50,[16],25.7 µM (active)
same,EC50,[5],41.4 µM (active)
same,EC50,[6],37.9 µM (active)
O=C(NCc1ccc2c(c1)OCO2)c1nc(S(=O)(=O)Cc2ccccc2F)ncc1Cl,AC50,[7],5.02 µM (active)
same,AC50,[12],2.6 µM (active)
same,EC50,Protein RecA,3.25 µM (active)
same,AC50,[13],5.19 µM (active)
same,AC50,[14],31.1 µM (active)
same,AC50,[15],5.92 µM (active)
CCOC(=O)c1cc2sccc2n1CC(=O)Nc1ccc(OC)cc1,EC50,cells [3],> 350 µM (not active)
same,EC50,[17],> 195 µM (not active)
same,EC50,cells [4],> 350 µM (not active)
CN(CC(=O)Nc1ccc(S(=O)(=O)N2CCCC2)cc1)CC(=O)Nc1cccc(F)c1,EC50,cells [3],> 350 µM (not active)
same,EC50,cells [4],> 350 µM (not active)
